Data published in patent publication US5981255A, “Alkaline protease, process for the production thereof, use thereof, and microorganism producing the same” (priority 1995, dated 1999).
Read-outs that look alike come from different tables or passages of the source.

System: alkaline protease API-26 produced by Bacillus sp. SD 114 (FERM BP-5736)
Format: biochemical
Protocol: Add 50 μl of the enzyme solution diluted appropriately to 500 μl of 50 mM Atkins-Pantin borate buffer, pH10, and pre-incubate at 30° C. for 3 to 5 minutes. To this solution, add 500 μl of 2% Hammarsten*s casein solution, pH 10, and after 10 minutes, stop the reaction by adding 2 ml of trichloroacetic acid (TCA) solution (0.032 M TCA solution adjusted to pH 4 with acetate buffer). Leave at 30° C. for more than 10 minutes, and filter with paper filter No.2 (Toyo Roshi). To 1 ml of filtrate add 5 ml of 0.4 M sodium carbonate and 1 ml of phenol reagent diluted 6-fold with water. Leave at 30° C. for 20 minutes for coloring, and then determine the absorbance at 660 nm. The unit of the protease activity is described by the katal. One katal is defined as the activity that the protease reacting with casein as a substrate at pH 10 and at 30° C. produces a degradation product with the absorbance at 660 nm equivalent to one mole of tyrosine.
Effects of various inhibitors against this enzyme were investigated according to the following conditions and procedure:
A solution containing this enzyme at about 20 nkatal/ml in 50 mM borate buffer, pH 10 was prepared. To this solution, EDTA, p-mercuribenzoic acid (PCMV) or phenylmethanesulfonyl fluoride (PMSF) was added at a concentration shown in Table 4. After incubating at 30° C. for 30 minutes, the enzyme activity was determined.

Row | SMILES | Activity (relative activity, enzyme with no inhibitor = 100%) (pH 10) | Activity (relative activity, enzyme with no inhibitor = 100%) (PCMV 1 mM, 50 mM borate buffer pH 10, incubated at 30° C. for 30 minutes, enzyme about 20 nkatal/ml) [%]
1 | O=C(O)CN(CCN(CC(=O)O)CC(=O)O)CC(=O)O [EDTA, ethylenediaminetetraacetic acid] | 99 | –
2 | O=C(O)c1cc[c]([Hg][OH])cc1 [PCMV, p-mercuribenzoic acid] | – | 100
